Key:
PRMT5-MTA = PRMT5-MTA (Homo sapiens, UniProt O14744); assay: Enzymatic inhibitory activity against PRMT5-MTA (AlphaScreen); assay type: biochemical; conditions: read-out: IC50
How it was run: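 PRMT5/[…] (1 nM) was preincubated for 30 min at room temperature with 1 µM […] and 2.5 µM SAM, then exposed to compound (10-point, 3-fold from 1000 nM) for 15 min at 23 °C. Histone H4 substrate (5 nM) was added and reacted for 45 min at 23 °C. Symmetric dimethyl-R3 H4 was detected by AlphaScreen and IC50 calculated.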

HCT116 MTAP KO cells = assay: Inhibitory activity against cell proliferation (CellTiter Glo, 6 days), HCT116 MTAP KO; assay type: cell-based; conditions: for IC50: Homo sapiens, HCT-116, 144 h, HCT116 MTAP KO cells, 6 days, CellTiter Glo, read-out: HCT116 MTAP KO IC50; for Selectivity HCT 116-WT/ HCT116 MTAP KO: ratio of IC50 HCT116-WT / HCT116 MTAP KO
How it was run: (§1)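 Cells were seeded at 250 per well in McCoy's 5A with 10% FBS and left overnight at 37°C, 5% CO2. Compounds were added as 8-point, 4-fold dilutions from 10000 nM, with DMSO-only controls, for 6 days. IC50 values came from CellTiter Glo luminescence.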

HCT116-WT cells = assay: Inhibitory activity against cell proliferation (CellTiter Glo, 6 days), HCT116-WT; assay type: cell-based; conditions: 144 h, HCT116-WT cells, 6 days, CellTiter Glo; read-out: HCT116-WT IC50
How it was run: as §1

PRMT5-MTA, sequence (O14744 whole entry): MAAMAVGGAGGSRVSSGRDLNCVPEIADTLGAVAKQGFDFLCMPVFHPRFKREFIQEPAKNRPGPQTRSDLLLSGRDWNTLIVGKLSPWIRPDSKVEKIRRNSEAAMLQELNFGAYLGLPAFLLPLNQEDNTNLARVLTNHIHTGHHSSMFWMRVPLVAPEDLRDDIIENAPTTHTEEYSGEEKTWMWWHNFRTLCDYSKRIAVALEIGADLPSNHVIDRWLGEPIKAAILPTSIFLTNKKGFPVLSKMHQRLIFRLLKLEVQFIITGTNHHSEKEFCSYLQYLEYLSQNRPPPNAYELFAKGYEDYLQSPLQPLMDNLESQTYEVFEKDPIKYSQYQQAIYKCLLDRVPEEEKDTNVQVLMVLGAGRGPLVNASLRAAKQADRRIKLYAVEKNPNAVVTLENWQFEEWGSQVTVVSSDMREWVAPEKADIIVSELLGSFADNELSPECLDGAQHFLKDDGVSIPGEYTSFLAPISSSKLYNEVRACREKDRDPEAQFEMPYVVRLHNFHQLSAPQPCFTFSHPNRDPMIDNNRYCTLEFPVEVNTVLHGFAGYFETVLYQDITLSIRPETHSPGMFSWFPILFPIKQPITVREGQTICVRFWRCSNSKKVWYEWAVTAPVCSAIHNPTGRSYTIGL
PRMT5-MTA, sequence (Q9BQA1 whole entry partner): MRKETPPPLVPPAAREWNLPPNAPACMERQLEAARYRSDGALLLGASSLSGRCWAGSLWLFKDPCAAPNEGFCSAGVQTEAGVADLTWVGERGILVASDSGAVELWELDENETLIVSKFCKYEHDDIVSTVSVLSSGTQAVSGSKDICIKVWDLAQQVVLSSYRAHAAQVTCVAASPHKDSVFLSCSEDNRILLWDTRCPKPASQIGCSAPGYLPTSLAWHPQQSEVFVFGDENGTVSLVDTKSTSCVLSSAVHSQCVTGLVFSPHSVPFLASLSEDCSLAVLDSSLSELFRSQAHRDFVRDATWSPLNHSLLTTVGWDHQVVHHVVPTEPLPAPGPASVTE

With `CN(c1ncccn1)N(Cc1ccc(C(F)(F)F)cn1)C(=O)c1ccc2nc(N)c3cnccc3c2c1` [Example 308, 5-amino-N'-methyl-N'-(pyrimidin-2-yl)-N-((5-(trifluoromethyl)pyridin-2-yl)methyl)ben zo[c][2,7]naphthyridine-9-carbohydrazide] the IC50 (PRMT5-MTA) was 1.1 nM, the IC50 (HCT116 MTAP KO cells) was 11 nM and the “Selectivity HCT 116-WT/ HCT116 MTAP KO” value (HCT116 MTAP KO cells) was 19.64. The IC50 (HCT116-WT cells) was 216 nM.

`[2H]C([2H])([2H])c1cc2cc(C(=O)N(Cc3ccc(C(F)(F)F)cn3)N(C)c3ncccn3)ccc2nc1N` [Example 310, 2-amino-N'-methyl-3-(methyl-d3)-N'-(pyrimidin-2-yl)-N-((5-(trifluoromethyl)pyridin-2-yl)methyl)quinoline-6-carbohydrazide] was tested, and the IC50 (PRMT5-MTA) was 1.8 nM, the IC50 (HCT116 MTAP KO cells) was 33 nM and the “Selectivity HCT 116-WT/ HCT116 MTAP KO” value (HCT116 MTAP KO cells) was 34.09. For the same compound, the IC50 (HCT116-WT cells) was 1120 nM.

For `[2H]C([2H])([2H])c1cc2cc(C(=O)N(Cc3ccc(C(F)(F)F)cn3)N(c3ncccn3)C([2H])([2H])[2H])ccc2nc1N` [Example 311, 2-amino-N',3-bis(methyl-D3)-N'-(pyrimidin-2-yl)-N-((5-(trifluoromethyl)pyridin-2-yl)methyl)quinoline-6-carbohydrazide], the IC50 (PRMT5-MTA) was 3 nM, the IC50 (HCT116 MTAP KO cells) was 59 nM and the “Selectivity HCT 116-WT/ HCT116 MTAP KO” value (HCT116 MTAP KO cells) was 29.78. For the same compound, the IC50 (HCT116-WT cells) was 1760 nM.

With `[2H]C([2H])([2H])c1cc2cc(C(=O)N(Cc3ccc(C(F)(F)F)cn3)N(C)c3nccc4nccnc34)ccc2nc1N` [Example 313, 2-amino-N'-methyl-3-(methyl-d3)-N'-(pyrido[3,4-b]pyrazin-5-yl)-N-((5-(trifluoromethyl)pyridin-2-yl)methyl)quinoline-6-c arbohydrazide] the IC50 (PRMT5-MTA) was 4.2 nM, the IC50 (HCT116 MTAP KO cells) was 38 nM and the “Selectivity HCT 116-WT/ HCT116 MTAP KO” value (HCT116 MTAP KO cells) was 13.37. For the same compound, the IC50 (HCT116-WT cells) was 508 nM.

For `[2H]C([2H])([2H])c1cc2cc(C(=O)N(Cc3ccc(C(F)(F)F)cn3)N(c3ncccn3)C3CC3)ccc2nc1N` [Example 314, 2-amino-N'-cyclopropyl-3-(methyl-D3)-N'-(pyrimidin-2-yl)-N-((5-(trifluoromethyl)pyridin-2-yl)methyl)quinoline-6-carbo hydrazide], the IC50 (PRMT5-MTA) was 4.7 nM, the IC50 (HCT116 MTAP KO cells) was 12 nM and the “Selectivity HCT 116-WT/ HCT116 MTAP KO” value (HCT116 MTAP KO cells) was 23.58. For the same compound, the IC50 (HCT116-WT cells) was 283 nM.

`[2H]C([2H])([2H])c1cc2cc(C(=O)N(Cc3ccc(-c4scnc4C)cn3)N(c3ncccn3)C3CC3)ccc2nc1N` [Example 316, 2-amino-N'-cyclopropyl-3-(methyl-D3)-N-((5-(4-methylthiazol-5-yl)pyridin-2-yl)methyl)-N'-(pyrimidin-2-yl)quinoline-6-c arbohydrazide] was tested, and the IC50 (PRMT5-MTA) was 6.8 nM, the IC50 (HCT116 MTAP KO cells) was 11 nM and the “Selectivity HCT 116-WT/ HCT116 MTAP KO” value (HCT116 MTAP KO cells) was 19.55. For the same compound, the IC50 (HCT116-WT cells) was 215 nM.

For `[2H]C([2H])([2H])c1cc2cc(C(=O)N(Cc3ccc(-c4sc(C)nc4C)cn3)N(c3ncccn3)C3CC3)ccc2nc1N` [Example 317, 2-amino-N'-cyclopropyl-N-((5-(2,4-dimethylthiazol-5-yl)pyridin-2-yl)methyl)-3-(methyl-D3)-N'-(pyrimidin-2-yl)quinoline-6-carbohydrazide], the IC50 (PRMT5-MTA) was 6.4 nM, the IC50 (HCT116 MTAP KO cells) was 23 nM and the “Selectivity HCT 116-WT/ HCT116 MTAP KO” value (HCT116 MTAP KO cells) was 10.48. The IC50 (HCT116-WT cells) was 241 nM.

In the case of `[2H]C([2H])([2H])c1cc2cc(C(=O)N(Cc3ccc(-c4cncs4)cn3)N(C)c3ncccn3)ccc2nc1N` [Example 318, 2-amino-N'-methyl-3-(methyl-D3)-N'-(pyrimidin-2-yl)-N-((5-(thiazol-5-yl)pyridin-2-yl)methyl)quinoline-6-carbohydrazide], the IC50 (PRMT5-MTA) is reported as 6.3 nM, the IC50 (HCT116 MTAP KO cells) is reported as 16 nM and the “Selectivity HCT 116-WT/ HCT116 MTAP KO” value (HCT116 MTAP KO cells) is reported as 21.13. It also gave an IC50 (HCT116-WT cells) of 338 nM.

`Nc1nc2ccc(C(=O)N(Cc3ccc(C(F)(F)F)cn3)N(c3ncccn3)C3CC3)cc2cc1CO` [Example 320, 2-amino-N'-cyclopropyl-3-(hydroxymethyl)-N'-(pyrimidin-2-yl)-N-((5-(trifluoromethyl)pyridin-2-yl)methyl)quinoline-6-carbohydrazide] was tested, and the IC50 (PRMT5-MTA) was 5.5 nM, the IC50 (HCT116 MTAP KO cells) was 102 nM and the “Selectivity HCT 116-WT/ HCT116 MTAP KO” value (HCT116 MTAP KO cells) was 24.70. For the same compound, the IC50 (HCT116-WT cells) was 2520 nM.

From patent publication EP4745134A1 (Jiangsu Yahong Meditech Co., Ltd., priority 2023, dated 2025)
